Data as given in article PMC11685127, “Pharmacokinetic/pharma-codynamic study of pralurbactam (FL058) combined with meropenem in a neutropenic murine thigh infection model” (Frontiers in Microbiology, 2024).
Read-outs that look alike come from different tables or passages of the source.

Experiments:
K. pneumoniae = assay: Susceptibility testing (MIC); type: cell-based; conditions: drug alone
Text: (§1) The study used a total of […] strains of KPC-, NDM-, or OXA-producing Enterobacterales (three strains of K. pneumoniae and four strains of E. coli), which were provided by Microbiology Division, Institute of Antibiotics, Huashan Hospital, Fudan University. Quality control strains are selected for each bacteria.
(§2) Supplementary Table 1 Susceptibility testing results of meropenem alone, pralurbactam alone, or meropenem with FL058 in combination against K. pneumoniae and E. coli

E. coli = assay: Susceptibility testing (MIC); type: cell-based; conditions: drug alone
Text: as §1, §2

Escherichia coli [1] = assay: Neutropenic murine thigh infection model, PK/PD Emax fitting; type: in vivo; conditions: 50 mg/kg meropenem alone q2h (without pralurbactam); strains 18-W40-096 and ATCC BAA-2452
Description: (§3) Mice (SPF grade, female, 25–30 g, 6–7 weeks) were provided by Beijing Huafukang Biotechnology Co. The animal study was reviewed and approved by the Animal Ethics Committee of State Key Laboratory of Biotherapy, Sichuan University (approval letter No.: 20190923035). All experimental animals from the study were intraperitoneally injected with cyclophosphamide (solution using 0.9% sodium chloride injection to achieve a concentration of 15 mg/ml) at a dose of 150 mg/kg at 4 days and 1 day prior to the day of infection to form immunocompromised mouse models. The hair on both thighs of the mice was shaved off 2 h before inoculation. The injection site was disinfected with 75% alcohol before intramuscular injection and dried with skimmed cotton. The mouse was challenged by inoculum of 1 × 10^8 CFU/ml of the test strain via injection of 50 μl of bacterial solution into both thighs. The time was referred to as t = 0 h, 2 h after the mice were infected. The control mice were euthanized at this time to record the initial bacterial colonies by taking the thigh muscle. The specific dosage of pralurbactam or meropenem for each dosing regimen was intraperitoneally injected (t = 0 h). At 26 h after the mice were infected (t = 24 h), the mice (experimental group) in each dosage cohort were euthanized to record the bacterial load to calculate CFU change (Δlog10 CFU).

[2] = Single-dose intraperitoneal PK of pralurbactam in mice plasma (UPLC-MS/MS, one-compartment model, population PK); type: in vivo; conditions: for Dose proportionality of Cmax or AUCinf (PK linearity): 5-500 mg/kg ip, non-compartmental regression analysis
Text: The ultra-high performance liquid chromatography-tandem mass spectrometry (UPLC-MS/MS) system consisted of an LC-30A UPLC (Shimadzu Corporation, Japan) equipped with an Atlantis® T3 (3 μm, 2.1 × 100 mm) column, liquidity, and the cleaning solution mixed with formic acid, ammonium acetate, and acetonitrile, an API5500 mass spectrometer (AB SCIEX, USA). The retention times of chromatographic peaks and mass-to-charge ratios were obtained by MRM scanning pralurbactam (m/z 383.2 → 303.0), meropenem (m/z 384.1 → 141.2), internal standards pralurbactam-D4 (m/z 387.3 → 307.1), and meropenem-D6 (m/z 390.1 → 147.2) for peak identification. The drug concentration in the samples was calculated using Watson LIMS (version 7.5).
The UPLC-MS/MS method used to measure pralurbactam and meropenem concentrations in mice plasma was validated accurately in terms of selectivity, interaction, matrix effect, calibration curve, linearity, precision, accuracy, recovery, and stability. […] At this LLOQ level, the intra- and inter-assay precision was 3.5%–9.0% and 6.3% for pralurbactam, 5.0%–10.7% and 14.3% for meropenem. The overall recovery of pralurbactam and meropenem was 81.2% and 58.6%, respectively, and the corresponding coefficient of variation (CV) was 8.0% and 5.4%. This assay method was applied to quantify pralurbactam and meropenem for PK study.
The administration method for pralurbactam or meropenem (dissolved in sterile water) is single-dose intraperitoneal injection. […] Five mice were randomly selected for anesthesia and orbital blood sampling at each time-point (0.083, 0.25, 0.5, 1, 2, 3, 4, and 6 h) after dosing. A blood sample (600–800 μl) was obtained from the mouse immediately. Each mouse selected for blood sampling at each time point was euthanized immediately. The concentrations of pralurbactam and meropenem in plasma samples were determined using the validated UPLC-MS/MS method. PK parameters (including non-compartmental parameter linear fitting and compartmental simulation) of pralurbactam and meropenem in plasma were calculated using Phoenix WinNonlin (version 8.1, Certara Corporation). The compartmental PK parameters of pralurbactam were used to calculate the fCmax, fAUC0–24, and %fT > CT. The free fraction of pralurbactam was 100% based on in vitro mouse plasma.
In this study, the PK parameters of pralurbactam were calculated for each dosage cohort using Phoenix WinNonlin software based on the mean plasma concentrations at each sampling point in mice. The mean values of the PK parameters were used to simulate the potential PK/PD indices. Another method, the PK parameters could be estimated by the population PK (PPK) model using NONMEM software based on the pooled plasma concentrations. The estimated typical values of Ke and V/F based on the population PK model of pralurbactam were generally consistent with the classical mean values of Ke (PPK: 2.34 h^1 vs. classical PK: 2.55 h^1) and V/F (PPK: 0.719 L vs. classical PK: 0.72 L).

[3] = human, in vivo, cited from earlier work
Klebsiella pneumoniae = assay: Neutropenic murine thigh infection model, PK/PD Emax fitting; type: in vivo; conditions: fixed 100 mg/kg q2h of meropenem; strains 17-R1-16, 20-W2-70, ATCC BAA-1705
Description: as §3

Escherichia coli [4] = conditions: cited from earlier work
[5] = Free fraction in in vitro mouse plasma; type: in vitro ADME
[6] = system: class A, C, and D β-lactamases; parameters: method as in Sharma et al., 2016; conditions: ref Sharma et al., 2016; cited from earlier work
[7] = mean of all dosage cohorts, classical one-compartment PK
[8] = population PK (PPK) model, NONMEM, typical value, pooled plasma concentrations
[9] = pralurbactam 5 mg/kg ip single dose, alone, one-compartment model
[10] = pralurbactam 50 mg/kg ip single dose, alone, one-compartment model
[11] = pralurbactam 50 mg/kg ip, combined with meropenem 100 mg/kg, one-compartment model
[12] = pralurbactam 250 mg/kg ip, combined with meropenem 100 mg/kg, one-compartment model
[13] = pralurbactam 500 mg/kg ip single dose, alone, one-compartment model

In the case of C[C@@H](O)[C@H]1C(=O)N2C(C(=O)O)=C(S[C@@H]3CN[C@H](C(=O)N(C)C)C3)[C@H](C)[C@H]12 [Meropenem], the MIC (K. pneumoniae; 17-R1-16 (KPC-2, CTX-M-14)) was > 64 µg/mL, the MIC (K. pneumoniae; 20-W2-70 (OXA-48)) was 32 µg/mL and the MIC (K. pneumoniae; ATCC BAA-1705 (KPC-2)) was 16 µg/mL. The MIC (E. coli; 18-W32-020 (NDM-5)) was 32 µg/mL, the MIC (E. coli; 18-W39-088 (NDM-1)) was > 64 µg/mL and the MIC (E. coli; 18-W40-096 (NDM-1)) was 64 µg/mL. For the same compound, the MIC (E. coli; ATCC BAA-2452 (NDM-1)) was 32 µg/mL and the “Growth inhibition in thigh model” value (Escherichia coli [1]) was “significant growth inhibition”.

In the case of N=C(N)NOCCONC(=O)[C@@H]1CC[C@@H]2CN1C(=O)N2OS(=O)(=O)O [Pralurbactam], the MIC (K. pneumoniae; 17-R1-16 (KPC-2, CTX-M-14)) was > 64 µg/mL, the MIC (K. pneumoniae; 20-W2-70 (OXA-48)) was 8 µg/mL and the MIC (K. pneumoniae; ATCC BAA-1705 (KPC-2)) was 4 µg/mL. It also gave an MIC (E. coli; 18-W32-020 (NDM-5)) of 2 µg/mL, an MIC (E. coli; 18-W39-088 (NDM-1)) of 4 µg/mL and an MIC (E. coli; 18-W40-096 (NDM-1)) of 4 µg/mL. The MIC (E. coli; ATCC BAA-2452 (NDM-1)) was 4 µg/mL, the “%fT > 1 mg/L” value ([2]; 50 mg/kg q2h pralurbactam intraperitoneally in mice) was 88% and the “Dose proportionality of Cmax or AUCinf (PK linearity)” value [2] was “linear”. The “Dose proportionality of Cmax or AUCinf (PK linearity)” value ([2]; listed as pralurbactam) was “dose proportional”, the Ka [2, 7] was 50.2 h^1 and the Ke [2, 7] was 2.55 h^1. The V/F [2, 7] was 0.72 L, the Ka ([2]; median value of dosage cohorts, classical PK) was 26.0 h^1 and the Ka ([2]; population PK (PPK) model, NONMEM, estimate) was 29.1 h^1. For the same compound, the Ke [2, 8] was 2.34 h^1, the V/F [2, 8] was 0.719 L and the Ka [2, 9] was 27.4 h^1. It also gave a Ke [2, 9] of 2.24 h^1, a V/F [2, 9] of 0.77 L and a Ka [2, 10] of 13.7 h^1. It also gave a Ke [2, 10] of 3.83 h^1, a V/F [2, 10] of 0.55 L and a Ka [2, 11] of 24.5 h^1. It also gave a Ke [2, 11] of 2.11 h^1, a V/F [2, 11] of 0.79 L and a Ka [2, 12] of 26.0 h^1. It also gave a Ke [2, 12] of 1.93 h^1, a V/F [2, 12] of 0.91 L and a Ka [2, 13] of 159.4 h^1. For the same compound, the Ke [2, 13] was 2.64 h^1, the V/F [2, 13] was 0.57 L and the “%fT > 1 mg/L” value ([3]; iv) was 86%. For the same compound, the “Safety, tolerance and PK profiles” value [3] was “good safety, tolerance, and PK profiles”, the “Pralurbactam dose in the combination that inhibits growth of all test strains” value (Klebsiella pneumoniae) was “at least 25 mg/kg” and the “Activity of pralurbactam alone” value (Escherichia coli [4]; ref Huang et al., 2024a) was “partial activity”. The “Inhibitory effect of pralurbactam alone” value (Escherichia coli [4]; ref in vitro susceptibility study (to be published)) was “notable inhibitory effects”, the Free fraction [5] was 100% and the “Activity against β-lactamases in vitro” value [6] was “active”.
